The molecules below were run against T1, recombinant human NAE enzyme (Homo sapiens, UniProt Q8TBC4) (assay: Nedd8-Activating Enzyme (NAE) HTRF Assay). Conditions: 20 μM ATP, bound given in nM.
T1 construct: His (N); made in house; host or cells: Sf9 insect cells (baculovirus, Bac-to-Bac)
T1 sequence (Q8TBC4 1-463): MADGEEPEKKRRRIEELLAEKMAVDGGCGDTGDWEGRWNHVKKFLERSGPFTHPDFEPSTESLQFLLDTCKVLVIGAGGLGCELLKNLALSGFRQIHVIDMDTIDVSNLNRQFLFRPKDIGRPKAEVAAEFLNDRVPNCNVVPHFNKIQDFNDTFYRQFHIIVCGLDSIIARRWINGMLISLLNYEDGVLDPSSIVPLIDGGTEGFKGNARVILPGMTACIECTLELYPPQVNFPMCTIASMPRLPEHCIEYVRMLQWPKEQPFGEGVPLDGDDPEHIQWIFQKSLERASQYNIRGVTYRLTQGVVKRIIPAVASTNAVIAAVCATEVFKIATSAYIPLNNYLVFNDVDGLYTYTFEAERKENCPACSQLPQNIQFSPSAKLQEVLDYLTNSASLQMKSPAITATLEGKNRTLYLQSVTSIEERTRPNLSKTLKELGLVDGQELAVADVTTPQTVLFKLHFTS
T1 sequence (Q13564 1-534 partner): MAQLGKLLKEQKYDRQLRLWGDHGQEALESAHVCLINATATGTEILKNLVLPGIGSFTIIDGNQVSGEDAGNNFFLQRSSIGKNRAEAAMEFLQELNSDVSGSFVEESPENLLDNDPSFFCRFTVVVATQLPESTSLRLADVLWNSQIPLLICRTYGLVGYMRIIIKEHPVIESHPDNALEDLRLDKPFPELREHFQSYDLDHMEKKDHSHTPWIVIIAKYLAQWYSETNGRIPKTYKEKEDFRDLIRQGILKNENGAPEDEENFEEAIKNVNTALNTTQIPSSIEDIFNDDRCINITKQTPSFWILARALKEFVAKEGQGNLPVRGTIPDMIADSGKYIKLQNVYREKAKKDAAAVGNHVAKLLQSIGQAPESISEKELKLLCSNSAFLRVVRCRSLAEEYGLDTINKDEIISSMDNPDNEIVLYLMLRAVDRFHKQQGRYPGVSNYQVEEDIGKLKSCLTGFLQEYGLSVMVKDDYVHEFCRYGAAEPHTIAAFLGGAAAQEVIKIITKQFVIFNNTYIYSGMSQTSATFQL
Assay type: biochemical
Procedure: Following manufacturer instructions, baculoviruses were generated with the Bac-to-Bac Expression System (Invitrogen) for the following proteins: untagged NAEα (APPBP1; NP_003896.1), N-terminally His-tagged NAEJ (UBE1C; NP_003959.3), untagged SAEα (SAE1; NP_005491.1), N-terminally His-tagged SAE3 (UBA2; NP_005490.1), N-terminally His-tagged murine UAE (UBE1X; NP_033483). NAEα/His-NAEβ and SAEα/His-SAEβ complexes were generated by co-infection of Sf9 cells, which were harvested after 48 hours. His-mUAE was generated by single infection of Sf9 cells and harvested after 72 hours. Expressed proteins were purified by affinity chromatography (Ni-NTA agarose, Qiagen) using standard buffers. Nedd8-Activating Enzyme (NAE) HTRF Assay. The NAE enzymatic reaction totaled 50 μL and contained 50 mM HEPES (pH 7.5), 0.05% BSA, 5 mM MgCl2, 20 μM ATP, 250 μM GSH, 0.01 μM Ubc12-GST, 0.075 μM Nedd8-Flag and 0.20 nM recombinant human NAE enzyme. The enzymatic reaction mixture, with and without compound inhibitor, was incubated at room temperature 24° C. for 105 minutes in a 384-well plate before termination with 25 μL of Stop/Detection buffer (0.1M HEPES pH 7.5, 0.05% Tween20, 20 mM EDTA, 410 mM KF, 0.53 nM Europium-Cryptate labeled monoclonal anti-FLAG M2 antibody (CisBio International) and 8.125 μg/mL PHYCOLINK goat anti-GST allophycocyanin (XL-APC) antibody (Prozyme)). After incubation for 1 hour at 24° C., quantification of the FRET was performed on the Analyst™ HT 96.384 (Molecular Devices).

Structure (SMILES)	IC50 [nM]
CN(c1ncnc2[nH]c(-c3cccc4ccccc34)nc12)[C@@H]1C[C@@H](COS(N)(=O)=O)[C@@H](O)C1 [Compound I-46, ((1S,2S,4R)-2-hydroxy-4-{methyl[8-(1-naphthyl)-9H-purin-6-yl]amino}-cyclopentyl)methyl sulfamate]	≤ 500
CO[C@H]1Cc2ccccc2[C@H]1Nc1cc(N[C@@H]2C[C@@H](COS(N)(=O)=O)[C@@H](O)C2)ncn1 [Compound I-47, {(1S,2S,4R)-2-hydroxy-4-[(6-{[(1R,2S)-2-methoxy-2,3-dihydro-1H-inden-1-yl]-amino}pyrimidin-4-yl)amino]cyclopentyl}methyl sulfamate]	≤ 500
NS(=O)(=O)OC[C@@H]1C[C@@H](Nc2ncnc3[nH]c(-c4ccccc4-c4ccccc4)nc23)C[C@@H]1O [Compound I-48, {(1S,2S,4R)-4-[(8-biphenyl-2-yl-9H-purin-6-yl)amino]-2-hydroxycyclopentyl}-methyl sulfamate]	> 500
NS(=O)(=O)OC[C@@H]1C[C@@H](Nc2ncnc3[nH]c(-c4cccc5ccccc45)nc23)C[C@@H]1O [Compound I-49, ((1S,2S,4R)-2-hydroxy-4-{[8-(1-naphthyl)-9H-purin-6-yl]amino}cyclopentyl)-methyl sulfamate]	≤ 500
CN(C)C[C@H]1Cc2ccccc2[C@H]1Nc1cc(O[C@@H]2C[C@@H](COS(N)(=O)=O)[C@@H](O)C2)ncn1 [Compound I-53, ((1S,2S,4R)-4-{[6-({(1S,2R)-2-[(dimethylamino)methyl]-2,3-dihydro-1H-inden-1-yl}amino)pyrimidin-4-yl]oxy}-2-hydroxycyclopentyl)methyl sulfamate]	> 500
NS(=O)(=O)OC[C@@H]1C[C@@H](Nc2cc(N[C@H]3CCc4ccccc43)nc(=O)[nH]2)C[C@@H]1O [Compound I-54, [(1S,2S,4R)-4-({6-[(1S)-2,3-dihydro-1H-inden-1-ylamino]-2-oxo-2,3-dihydropyrimidin-4-yl}amino)-2-hydroxycyclopentyl]methyl sulfamate]	> 500
CO[C@H]1Cc2ccccc2[C@H]1Nc1ncnc(N[C@@H]2C[C@H](COS(N)(=O)=O)[C@@H](O)[C@H]2O)n1 [Compound I-55, {(1R,2R,3S,4R)-2,3-dihydroxy-4-[(4-{[(1R,2S)-2-methoxy-2,3-dihydro-1H-inden-1-yl]amino}-1,3,5-triazin-2-yl)amino]cyclopentyl}methyl sulfamate]	≤ 500
NS(=O)(=O)OC[C@@H]1C[C@@H](Nc2c(Cl)cnc3[nH]c(-c4cccc5ccccc45)nc23)C[C@@H]1O [Compound I-56, ((1S,2S,4R)-4-{[6-chloro-2-(1-naphthyl)-3H-imidazo[4,5-b]pyridin-7-yl]amino}-2-hydroxycyclopentyl)methyl sulfamate]	≤ 500
NS(=O)(=O)OC[C@@H]1C[C@@H](Nc2ncnc3[nH]c(-c4cccc(Cl)c4)nc23)C[C@@H]1O [Compound I-60, ((1S,2S,4R)-4-{[8-(3-chlorophenyl)-9H-purin-6-yl]amino}-2-hydroxycyclopentyl)methyl sulfamate]	≤ 500
NS(=O)(=O)OC[C@@H]1C[C@@H](Nc2ncnc3[nH]c(-c4ccccc4OC(F)(F)F)nc23)C[C@@H]1O [Compound I-62, [(1S,2S,4R)-2-hydroxy-4-({8-[2-(trifluoromethoxy)phenyl]-9H-purin-6-yl}-amino)cyclopentyl]methyl sulfamate]	≤ 500
NS(=O)(=O)OC[C@@H]1C[C@@H](Oc2ncnc3[nH]c(-c4ccccc4)nc23)C[C@@H]1O [Compound I-63, {(1S,2S,4R)-2-hydroxy-4-[(8-phenyl-9H-purin-6-yl)oxy]cyclopentyl}methyl sulfamate]	≤ 500
CN(C)c1ccc(-c2nc3c(N[C@@H]4C[C@@H](COS(N)(=O)=O)[C@@H](O)C4)ncnc3[nH]2)c2ccccc12 [Compound I-64, [(1S,2S,4R)-4-({8-[4-(dimethylamino)-1-naphthyl]-9H-purin-6-yl}amino)-2-hydroxycyclopentyl]methyl sulfamate]	≤ 500
CC1(C)C[C@H](Nc2cc(N[C@@H]3C[C@@H](COS(N)(=O)=O)[C@@H](O)C3)ncn2)c2ccccc21 [Compound I-65, {(1S,2S,4R)-4-[(6-{[(1S)-3,3-dimethyl-2,3-dihydro-1H-inden-1-yl]amino}-pyrimidin-4-yl)amino]-2-hydroxycyclopentyl}methyl sulfamate]	≤ 500
CN(C)C(=O)[C@H]1Cc2ccccc2[C@H]1Nc1cc(O[C@@H]2C[C@@H](COS(N)(=O)=O)[C@@H](O)C2)ncn1 [Compound I-66, ((1S,2S,4R)-4-{[6-({(1S,2S)-2-[(dimethylamino)carbonyl]-2,3-dihydro-1H-inden-1-yl}amino)pyrimidin-4-yl]oxy}-2-hydroxycyclopentyl)methyl sulfamate]	> 500
COc1cccc(-c2nc3c(N[C@@H]4C[C@@H](COS(N)(=O)=O)[C@@H](O)C4)ncnc3[nH]2)c1OC [Compound I-67, ((1S,2S,4R)-4-{[8-(2,3-dimethoxyphenyl)-9H-purin-6-yl]amino}-2-hydroxycyclopentyl)methyl sulfamate]	≤ 500
NS(=O)(=O)OC[C@@H]1C[C@@H](Nc2ncnc3[nH]c(-c4ccccc4OCc4ccccc4)nc23)C[C@@H]1O [Compound I-68, [(1S,2S,4R)-4-({8-[2-(benzyloxy)phenyl]-9H-purin-6-yl}amino)-2-hydroxycyclopentyl]methyl sulfamate]	≤ 500
NS(=O)(=O)OC[C@@H]1C[C@@H](Nc2ncnc3[nH]c(-c4ccccc4)nc23)C[C@@H]1O [Compound I-69, {(1S,2S,4R)-2-hydroxy-4-[(8-phenyl-9H-purin-6-yl)amino]cyclopentyl}methyl sulfamate]	≤ 500
CC1(C)C[C@H](Nc2ncnc(N[C@@H]3C[C@@H](COS(N)(=O)=O)[C@@H](O)C3)c2F)c2ccccc21 [Compound I-71, {(1S,2S,4R)-4-[(6-{[(1S)-3,3-dimethyl-2,3-dihydro-1H-inden-1-yl]amino}-5-fluoropyrimidin-4-yl)amino]-2-hydroxycyclopentyl}methyl sulfamate]	≤ 500
NS(=O)(=O)OC[C@@H]1C[C@@H](Oc2ncnc3nc(-c4ccnc5cc(Cl)ccc45)[nH]c23)C[C@@H]1O [Compound I-73, ((1S,2S,4R)-4-{[8-(7-chloroquinolin-4-yl)-7H-purin-6-yl]oxy}-2-hydroxycyclopentyl)methyl sulfamate]	≤ 500
NS(=O)(=O)OC[C@@H]1C[C@@H](Nc2ncnc3[nH]c(-c4cccc5ccccc45)cc23)C[C@@H]1O [Compound I-74, ((1S,2S,4R)-2-hydroxy-4-{[6-(1-naphthyl)-7H-pyrrolo[2,3-d]pyrimidin-4-yl]amino}cyclopentyl)methyl sulfamate]	≤ 500

Same assay, conditions: 20 μM ATP, bound given in μM

Structure (SMILES)	IC50 [nM]
NS(=O)(=O)OC[C@@H]1C[C@@H](Nc2ncnc3[nH]c(-c4ccccc4-c4ccccc4)nc23)C[C@@H]1O [Compound I-48, {(1S,2S,4R)-4-[(8-biphenyl-2-yl-9H-purin-6-yl)amino]-2-hydroxycyclopentyl}-methyl sulfamate]	< 10000
CN(C)C[C@H]1Cc2ccccc2[C@H]1Nc1cc(O[C@@H]2C[C@@H](COS(N)(=O)=O)[C@@H](O)C2)ncn1 [Compound I-53, ((1S,2S,4R)-4-{[6-({(1S,2R)-2-[(dimethylamino)methyl]-2,3-dihydro-1H-inden-1-yl}amino)pyrimidin-4-yl]oxy}-2-hydroxycyclopentyl)methyl sulfamate]	< 10000
NS(=O)(=O)OC[C@@H]1C[C@@H](Nc2cc(N[C@H]3CCc4ccccc43)nc(=O)[nH]2)C[C@@H]1O [Compound I-54, [(1S,2S,4R)-4-({6-[(1S)-2,3-dihydro-1H-inden-1-ylamino]-2-oxo-2,3-dihydropyrimidin-4-yl}amino)-2-hydroxycyclopentyl]methyl sulfamate]	< 10000
NS(=O)(=O)OC[C@H]1C[C@@H](O)[C@H](Nc2cc(N[C@H]3CCc4ccccc43)ncn2)C1 [Compound I-58, [(1R,3R,4R)-3-({6-[(1S)-2,3-dihydro-1H-inden-1-ylamino]pyrimidin-4-yl}-amino)-4-hydroxycyclopentyl]methyl sulfamate]	> 10000
NS(=O)(=O)OC[C@@H]1C[C@@H](Oc2cc(N3CCc4ccccc4C3)ncn2)C[C@@H]1O [Compound I-61, ((1S,2S,4R)-4-{[6-(3,4-dihydroisoquinolin-2(1H)-yl)pyrimidin-4-yl]oxy}-2-hydroxycyclopentyl)methyl sulfamate]	> 10000
CN(C)C(=O)[C@H]1Cc2ccccc2[C@H]1Nc1cc(O[C@@H]2C[C@@H](COS(N)(=O)=O)[C@@H](O)C2)ncn1 [Compound I-66, ((1S,2S,4R)-4-{[6-({(1S,2S)-2-[(dimethylamino)carbonyl]-2,3-dihydro-1H-inden-1-yl}amino)pyrimidin-4-yl]oxy}-2-hydroxycyclopentyl)methyl sulfamate]	< 10000

— patent US9718788B2, “Heteroaryl compounds useful as inhibitors of E1 activating enzymes” (MILLENNIUM PHARMACEUTICALS, INC., priority 2006, dated 2017)
